Tests used:
[1] = biological target: Fibroblast growth factor receptor 4 (Homo sapiens) (UniProt P22455); assay: Inhibition of human FGFR4 catalytic domain expressed in baculovirus assessed as substrate phosphorylation using fluorescence-labelled peptides as substrate at 70 uM after 90 mins by microfluidic peptide phosphorylation assay
[2] = biological target: MAP kinase-activated protein kinase 2 (Homo sapiens) (UniProt P49137); assay: Inhibition of human full length MAPKAPK2 expressed in baculovirus assessed as substrate phosphorylation using fluorescence-labelled peptides as substrate at 70 uM after 90 mins by microfluidic peptide phosphorylation assay
Sequence of MAP kinase-activated protein kinase 2 (Homo sapiens) (P49137 whole entry, looked up): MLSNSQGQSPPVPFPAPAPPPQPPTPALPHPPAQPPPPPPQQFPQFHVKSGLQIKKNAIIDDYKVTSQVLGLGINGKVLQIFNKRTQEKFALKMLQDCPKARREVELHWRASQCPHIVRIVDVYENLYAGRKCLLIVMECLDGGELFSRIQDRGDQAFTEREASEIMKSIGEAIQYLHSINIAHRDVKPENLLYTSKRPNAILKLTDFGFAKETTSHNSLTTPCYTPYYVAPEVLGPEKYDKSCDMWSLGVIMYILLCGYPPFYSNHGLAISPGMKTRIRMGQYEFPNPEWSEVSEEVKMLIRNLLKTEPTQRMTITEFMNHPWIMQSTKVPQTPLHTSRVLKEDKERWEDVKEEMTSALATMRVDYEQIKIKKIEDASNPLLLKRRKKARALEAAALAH

[3] = biological target: Calcium/calmodulin-dependent protein kinase type II subunit delta (Homo sapiens) (UniProt Q13557); assay: Inhibition of human full length CAMK2D expressed in baculovirus assessed as substrate phosphorylation using fluorescence-labelled peptides as substrate at 0.2 uM after 90 mins by microfluidic peptide phosphorylation assay
[4] = biological target: Protein kinase C gamma type (Homo sapiens) (UniProt P05129); assay: Inhibition of human truncated PKC gamma expressed in baculovirus assessed as substrate phosphorylation using fluorescence-labelled peptides as substrate at 420 uM after 90 mins by microfluidic peptide phosphorylation assay
[5] = biological target: Tyrosine-protein kinase HCK (Homo sapiens) (UniProt P08631); assay: Inhibition of human HCK catalytic domain expressed in baculovirus assessed as substrate phosphorylation using fluorescence-labelled peptides as substrate at 420 uM after 90 mins by microfluidic peptide phosphorylation assay
Sequence of Tyrosine-protein kinase HCK (Homo sapiens) (P08631 2-526 limits assumed): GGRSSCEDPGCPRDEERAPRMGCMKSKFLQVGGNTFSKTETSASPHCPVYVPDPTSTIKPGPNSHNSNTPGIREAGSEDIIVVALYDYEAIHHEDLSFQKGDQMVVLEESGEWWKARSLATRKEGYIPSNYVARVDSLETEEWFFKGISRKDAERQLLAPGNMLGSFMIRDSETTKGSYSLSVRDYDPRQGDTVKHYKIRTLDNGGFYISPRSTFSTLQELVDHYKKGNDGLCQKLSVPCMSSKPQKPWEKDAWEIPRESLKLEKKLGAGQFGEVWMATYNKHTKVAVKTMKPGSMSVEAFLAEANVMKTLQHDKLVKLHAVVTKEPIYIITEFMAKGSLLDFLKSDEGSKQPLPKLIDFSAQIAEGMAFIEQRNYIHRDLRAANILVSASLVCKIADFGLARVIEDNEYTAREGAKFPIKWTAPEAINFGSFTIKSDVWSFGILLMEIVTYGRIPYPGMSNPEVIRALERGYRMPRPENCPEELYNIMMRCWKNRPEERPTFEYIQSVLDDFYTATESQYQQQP

[6] = biological target: Serine/threonine-protein kinase MARK2 (Homo sapiens) (UniProt Q7KZI7); assay: Inhibition of human full length MARK2 expressed in baculovirus assessed as substrate phosphorylation using fluorescence-labelled peptides as substrate at 95 uM after 90 mins by microfluidic peptide phosphorylation assay
Sequence of Serine/threonine-protein kinase MARK2 (Homo sapiens) (Q7KZI7 whole entry): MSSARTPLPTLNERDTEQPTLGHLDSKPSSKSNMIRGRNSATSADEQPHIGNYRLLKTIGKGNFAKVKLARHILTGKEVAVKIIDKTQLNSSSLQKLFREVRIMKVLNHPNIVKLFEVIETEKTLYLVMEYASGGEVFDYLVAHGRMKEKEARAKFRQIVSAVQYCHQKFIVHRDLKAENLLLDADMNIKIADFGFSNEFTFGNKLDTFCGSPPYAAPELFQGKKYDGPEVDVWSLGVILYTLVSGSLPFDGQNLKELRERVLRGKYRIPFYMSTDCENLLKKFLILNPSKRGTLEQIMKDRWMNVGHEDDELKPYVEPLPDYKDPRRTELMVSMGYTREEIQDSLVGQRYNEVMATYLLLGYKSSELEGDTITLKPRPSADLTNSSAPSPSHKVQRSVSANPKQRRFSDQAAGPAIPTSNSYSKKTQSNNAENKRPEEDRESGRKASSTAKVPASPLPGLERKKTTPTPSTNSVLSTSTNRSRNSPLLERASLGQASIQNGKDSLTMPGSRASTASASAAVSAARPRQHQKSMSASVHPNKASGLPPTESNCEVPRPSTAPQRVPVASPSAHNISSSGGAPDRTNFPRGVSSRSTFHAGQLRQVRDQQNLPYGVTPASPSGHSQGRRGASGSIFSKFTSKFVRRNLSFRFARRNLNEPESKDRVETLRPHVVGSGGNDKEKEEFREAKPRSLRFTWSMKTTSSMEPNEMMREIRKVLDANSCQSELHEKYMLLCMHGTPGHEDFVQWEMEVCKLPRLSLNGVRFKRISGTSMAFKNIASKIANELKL

[7] = biological target: T1, Testis-specific serine/threonine-protein kinase 1 (Homo sapiens) (UniProt Q9BXA7); assay: Inhibition of human full length TSSK1 expressed in baculovirus assessed as substrate phosphorylation using fluorescence-labelled peptides as substrate at 9 uM after 90 mins by microfluidic peptide phosphorylation assay
T1 sequence (whole entry): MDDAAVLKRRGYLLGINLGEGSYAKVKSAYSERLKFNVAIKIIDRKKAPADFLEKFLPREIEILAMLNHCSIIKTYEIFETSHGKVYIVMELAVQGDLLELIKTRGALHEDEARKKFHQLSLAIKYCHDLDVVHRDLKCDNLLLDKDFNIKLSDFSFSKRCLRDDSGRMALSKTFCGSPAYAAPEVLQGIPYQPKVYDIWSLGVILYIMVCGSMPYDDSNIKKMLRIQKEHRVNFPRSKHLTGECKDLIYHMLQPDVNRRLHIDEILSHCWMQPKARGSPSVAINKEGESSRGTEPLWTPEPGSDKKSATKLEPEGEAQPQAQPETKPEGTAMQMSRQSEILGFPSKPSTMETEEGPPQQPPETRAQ

[8] = biological target: Serine/threonine-protein kinase pim-1 (Homo sapiens) (UniProt P11309); assay: Inhibition of human full length PIM1 expressed in baculovirus assessed as substrate phosphorylation using fluorescence-labelled peptides as substrate at 1000 uM after 90 mins by microfluidic peptide phosphorylation assay
Sequence of Serine/threonine-protein kinase pim-1 (Homo sapiens) (P11309 whole entry, looked up): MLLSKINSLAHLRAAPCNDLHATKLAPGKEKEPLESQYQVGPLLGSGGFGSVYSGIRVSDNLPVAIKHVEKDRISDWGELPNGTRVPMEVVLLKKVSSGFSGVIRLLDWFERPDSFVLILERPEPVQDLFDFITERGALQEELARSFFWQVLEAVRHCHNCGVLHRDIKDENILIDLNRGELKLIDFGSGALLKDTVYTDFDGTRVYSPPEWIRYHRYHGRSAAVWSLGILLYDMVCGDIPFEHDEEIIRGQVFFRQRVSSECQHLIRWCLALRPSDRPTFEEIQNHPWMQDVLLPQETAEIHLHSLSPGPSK

[9] = biological target: T2, Serine/threonine-protein kinase Sgk2 (Homo sapiens) (UniProt Q9HBY8); assay: Inhibition of human full length SGK2 expressed in baculovirus assessed as substrate phosphorylation using fluorescence-labelled peptides as substrate at 2 uM after 90 mins by microfluidic peptide phosphorylation assay
T2 sequence (whole entry): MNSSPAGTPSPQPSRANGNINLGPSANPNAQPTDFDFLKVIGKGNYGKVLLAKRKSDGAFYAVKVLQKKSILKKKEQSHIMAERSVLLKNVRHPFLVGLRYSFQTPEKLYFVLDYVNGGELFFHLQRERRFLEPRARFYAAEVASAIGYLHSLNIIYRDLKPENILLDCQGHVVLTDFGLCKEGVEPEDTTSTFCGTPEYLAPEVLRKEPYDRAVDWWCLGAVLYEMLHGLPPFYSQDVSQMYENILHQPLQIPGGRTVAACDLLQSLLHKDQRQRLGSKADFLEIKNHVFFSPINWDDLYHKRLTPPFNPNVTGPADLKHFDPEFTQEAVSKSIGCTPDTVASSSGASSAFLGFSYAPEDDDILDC

[10] = biological target: Fibroblast growth factor receptor 3 (Homo sapiens) (UniProt P22607); assay: Inhibition of human FGFR3 catalytic domain expressed in baculovirus assessed as substrate phosphorylation using fluorescence-labelled peptides as substrate at 2 uM after 90 mins by microfluidic peptide phosphorylation assay
Sequence of Fibroblast growth factor receptor 3 (Homo sapiens) (P22607 23-806 limits assumed): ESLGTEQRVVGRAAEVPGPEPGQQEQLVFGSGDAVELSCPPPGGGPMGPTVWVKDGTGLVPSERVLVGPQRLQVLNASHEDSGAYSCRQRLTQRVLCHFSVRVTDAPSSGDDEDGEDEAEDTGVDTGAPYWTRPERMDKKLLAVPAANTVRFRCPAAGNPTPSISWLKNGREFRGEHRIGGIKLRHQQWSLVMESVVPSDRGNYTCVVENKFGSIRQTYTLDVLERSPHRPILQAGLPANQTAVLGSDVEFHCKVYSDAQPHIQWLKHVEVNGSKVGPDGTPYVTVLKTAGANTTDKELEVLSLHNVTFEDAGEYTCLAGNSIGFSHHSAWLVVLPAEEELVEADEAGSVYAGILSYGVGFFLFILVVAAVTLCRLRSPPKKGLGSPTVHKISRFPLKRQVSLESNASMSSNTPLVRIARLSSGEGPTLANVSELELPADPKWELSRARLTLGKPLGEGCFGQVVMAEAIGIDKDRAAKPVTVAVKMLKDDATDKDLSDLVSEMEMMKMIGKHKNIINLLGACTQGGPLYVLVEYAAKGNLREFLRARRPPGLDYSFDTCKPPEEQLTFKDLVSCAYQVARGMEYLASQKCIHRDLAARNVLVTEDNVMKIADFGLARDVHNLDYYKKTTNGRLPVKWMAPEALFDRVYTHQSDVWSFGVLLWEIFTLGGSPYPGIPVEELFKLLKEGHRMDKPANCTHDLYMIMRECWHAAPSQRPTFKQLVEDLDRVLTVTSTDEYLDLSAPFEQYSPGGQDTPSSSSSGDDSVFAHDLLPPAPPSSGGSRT

[11] = biological target: T3, Protein kinase C epsilon type (Homo sapiens) (UniProt Q02156); assay: Inhibition of human truncated PKC epsilon expressed in baculovirus assessed as substrate phosphorylation using fluorescence-labelled peptides as substrate at […] after 90 mins by microfluidic peptide phosphorylation assay
T3 sequence (whole entry): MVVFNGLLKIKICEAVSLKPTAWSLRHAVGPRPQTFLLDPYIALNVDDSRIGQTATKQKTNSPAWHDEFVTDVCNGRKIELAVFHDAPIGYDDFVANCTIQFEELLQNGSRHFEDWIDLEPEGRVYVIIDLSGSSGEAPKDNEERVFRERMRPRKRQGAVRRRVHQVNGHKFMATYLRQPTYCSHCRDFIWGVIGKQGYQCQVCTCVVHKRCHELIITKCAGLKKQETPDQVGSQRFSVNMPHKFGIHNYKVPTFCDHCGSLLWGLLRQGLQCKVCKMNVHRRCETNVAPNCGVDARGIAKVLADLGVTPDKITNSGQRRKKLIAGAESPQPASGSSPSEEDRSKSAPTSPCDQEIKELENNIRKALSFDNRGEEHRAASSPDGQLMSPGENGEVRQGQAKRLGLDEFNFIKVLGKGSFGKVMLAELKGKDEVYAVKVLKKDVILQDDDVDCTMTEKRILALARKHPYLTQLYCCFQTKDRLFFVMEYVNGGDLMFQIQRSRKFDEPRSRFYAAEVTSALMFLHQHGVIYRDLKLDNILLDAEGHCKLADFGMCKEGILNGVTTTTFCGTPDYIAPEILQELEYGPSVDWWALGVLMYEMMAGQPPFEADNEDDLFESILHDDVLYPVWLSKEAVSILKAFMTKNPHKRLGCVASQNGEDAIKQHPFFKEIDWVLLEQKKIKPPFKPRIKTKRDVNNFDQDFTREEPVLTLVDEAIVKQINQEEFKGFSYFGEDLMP

[12] = biological target: Protein kinase C eta type (Homo sapiens) (UniProt P24723); assay: Inhibition of human truncated PKC eta expressed in baculovirus assessed as substrate phosphorylation using fluorescence-labelled peptides as substrate at 8 uM after 90 mins by microfluidic peptide phosphorylation assay
Sequence of Protein kinase C eta type (Homo sapiens) (P24723 whole entry, the tested form may be a part): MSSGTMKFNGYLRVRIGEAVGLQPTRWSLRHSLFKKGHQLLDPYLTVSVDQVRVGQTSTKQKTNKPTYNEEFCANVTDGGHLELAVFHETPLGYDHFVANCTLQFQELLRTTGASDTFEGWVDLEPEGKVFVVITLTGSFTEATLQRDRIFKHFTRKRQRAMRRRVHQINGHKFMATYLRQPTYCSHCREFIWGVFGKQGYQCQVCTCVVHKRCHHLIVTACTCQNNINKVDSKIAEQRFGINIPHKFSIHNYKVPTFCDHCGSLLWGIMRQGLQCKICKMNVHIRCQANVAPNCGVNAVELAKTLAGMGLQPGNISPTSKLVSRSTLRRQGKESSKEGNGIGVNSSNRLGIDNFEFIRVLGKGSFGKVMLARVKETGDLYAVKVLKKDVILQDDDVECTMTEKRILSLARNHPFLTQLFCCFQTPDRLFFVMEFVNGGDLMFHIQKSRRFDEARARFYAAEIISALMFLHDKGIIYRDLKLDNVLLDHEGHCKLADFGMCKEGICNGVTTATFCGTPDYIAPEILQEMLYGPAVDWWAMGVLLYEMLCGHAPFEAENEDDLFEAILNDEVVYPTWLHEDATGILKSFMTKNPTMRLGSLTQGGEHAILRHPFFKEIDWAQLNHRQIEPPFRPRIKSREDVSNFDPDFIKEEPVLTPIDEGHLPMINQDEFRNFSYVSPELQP

[13] = biological target: Mitogen-activated protein kinase kinase kinase kinase 4 (Homo sapiens) (UniProt O95819); conditions: 0.1 uM
Sequence of Mitogen-activated protein kinase kinase kinase kinase 4 (Homo sapiens) (O95819 2-1239 limits assumed): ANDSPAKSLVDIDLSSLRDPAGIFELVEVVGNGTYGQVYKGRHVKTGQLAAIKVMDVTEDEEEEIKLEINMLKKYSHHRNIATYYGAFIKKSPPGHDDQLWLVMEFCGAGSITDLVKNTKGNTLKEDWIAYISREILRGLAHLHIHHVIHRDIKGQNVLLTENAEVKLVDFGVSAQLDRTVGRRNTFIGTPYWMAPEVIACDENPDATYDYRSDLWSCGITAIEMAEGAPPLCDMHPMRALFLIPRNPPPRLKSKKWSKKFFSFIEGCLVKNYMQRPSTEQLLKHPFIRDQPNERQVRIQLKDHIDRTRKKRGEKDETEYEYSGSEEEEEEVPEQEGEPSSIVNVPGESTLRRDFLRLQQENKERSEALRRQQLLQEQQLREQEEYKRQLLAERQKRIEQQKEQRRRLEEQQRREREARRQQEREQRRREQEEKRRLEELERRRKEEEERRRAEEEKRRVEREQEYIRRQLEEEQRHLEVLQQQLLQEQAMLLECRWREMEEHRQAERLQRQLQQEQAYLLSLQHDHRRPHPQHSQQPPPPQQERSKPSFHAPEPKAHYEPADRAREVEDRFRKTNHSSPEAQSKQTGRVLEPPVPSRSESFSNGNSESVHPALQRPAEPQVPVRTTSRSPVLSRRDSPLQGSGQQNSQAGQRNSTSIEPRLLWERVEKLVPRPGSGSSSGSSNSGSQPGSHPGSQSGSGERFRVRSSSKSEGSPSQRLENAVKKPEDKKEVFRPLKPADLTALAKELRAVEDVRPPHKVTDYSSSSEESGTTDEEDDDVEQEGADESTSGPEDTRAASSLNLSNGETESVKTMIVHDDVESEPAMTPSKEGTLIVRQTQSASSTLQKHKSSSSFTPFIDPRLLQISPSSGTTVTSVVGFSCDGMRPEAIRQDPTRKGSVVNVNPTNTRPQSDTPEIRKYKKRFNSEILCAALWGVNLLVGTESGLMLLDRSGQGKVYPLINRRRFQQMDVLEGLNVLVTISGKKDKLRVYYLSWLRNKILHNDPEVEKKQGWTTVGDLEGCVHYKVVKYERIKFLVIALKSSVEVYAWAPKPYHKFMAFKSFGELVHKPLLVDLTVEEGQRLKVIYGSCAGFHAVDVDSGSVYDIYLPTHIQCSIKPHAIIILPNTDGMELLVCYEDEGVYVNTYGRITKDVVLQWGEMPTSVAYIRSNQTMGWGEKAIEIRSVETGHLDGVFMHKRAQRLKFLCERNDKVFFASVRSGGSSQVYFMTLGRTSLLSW
Description: Inhibition of human HGK catalytic domain expressed in baculovirus assessed as substrate phosphorylation using fluorescence-labelled peptides as substrate at 0.1 uM after 90 mins by microfluidic peptide phosphorylation assay

## CNCc1ccc(-c2ncnc3[nH]cnc23)cc1
[1]
  inhibition: 11.5%
[2]
  inhibition: 77%

## Clc1ccc(C2(c3ccc(-c4ncnc5[nH]cnc45)cc3)CCNCC2)cc1
[3]
  inhibition: 16%

## c1nc(N2CCOCC2)c2nc[nH]c2n1
[4]
  inhibition: 66%
[5]
  inhibition: 69.5%

## NCCc1ccc(-c2ncnc3[nH]cnc23)cc1
[6]
  inhibition: 67%

## NCC1CN(c2ncnc3[nH]c4cnccc4c23)CCO1 (stereo not drawn)
[7]
  inhibition: 41.5%

## c1cnc2[nH]ccc2c1
[8]
  inhibition: 20%

## NC1CCN(c2ncnc3[nH]ccc23)CC1
[9]
  inhibition: 46.5%
[10]
  inhibition: 0%

## COC(=O)c1cnc(Nc2cnc(C#N)cn2)cc1NCC1CCNCC1
[11]
  inhibition: 1%

## NCC1CCN(c2ncnc3[nH]ccc23)CC1
[12]
  inhibition: 82%

## C[C@H](CN(C)C)Oc1nc(Nc2cc3cccc(Cl)c3cn2)cnc1C#N
[13]
  inhibition: 0%
